Molecules are shown by their SMILES. pIC50: −log10 of the molar value.

This passage reports IC50 results from patent US11358953B2, “Functionalized peptides as antiviral agents” (ENANTA PHARMACEUTICALS, INC., priority 2020, dated 2022).

The experiment deals with SARS-CoV-2 3CL-protease (Severe acute respiratory syndrome coronavirus 2 (2019-nCoV) (SARS-CoV-2), UniProt P0DTD1). Put plainly: SARS-CoV-2 3C-like (3CL) protease fluorescence assay (FRET). It counts as biochemical. Particulars: recombinant SARS-CoV-2 3CL-protease 10 nM, 30 min preincubation at RT, substrate 40 μM, duplicate.

Consider `COc1cccc2[nH]c(C(=O)N3C[C@@H]4CCC[C@@H]4[C@H]3C(=O)N[C@H](C=O)C[C@@H]3CCNC3=O)cc12` [Ex6, (1S,3aR,6aS)-2-(4-methoxy-1H-indole-2-carbonyl)-N—((S)-1-oxo-3-((S)-2-oxopyrrolidin-3-yl)propan-2-yl)octahydrocyclopenta[c]pyrrole-1-carboxamide], for which the pIC50 (as a rule, the negative decadic logarithm of the IC50, by convention in mol/L) is greater than 7.00.
As to `CC(=O)N[C@H](C(=O)N1C[C@H]2[C@@H]([C@H]1C(=O)N[C@H](C#N)C[C@@H]1CCNC1=O)C2(C)C)C(C)(C)C` [Ex29, (1R,2S,5S)-3-((S)-2-acetamido-3,3-dimethylbutanoyl)-N—((S)-1-cyano-2-((S)-2-oxopyrrolidin-3-yl)ethyl)-6,6-dimethyl-3-azabicyclo[3.1.0]hexane-2-carboxamide], the pIC50 was greater than 7.00.
Consider `CC1(C)[C@@H]2[C@@H](C(=O)N[C@H](C#N)C[C@@H]3CCNC3=O)N(C(=O)c3cc4c(Cl)cccc4[nH]3)C[C@@H]21` [Ex21, (1R,2S,5S)-3-(4-chloro-1H-indole-2-carbonyl)-N—((S)-1-cyano-2-((S)-2-oxopyrrolidin-3-yl)ethyl)-6,6-dimethyl-3-azabicyclo[3.1.0]hexane-2-carboxamide], for which the pIC50 is 6.00 to 7.00.
With `COc1cccc2[nH]c(C(=O)N3C[C@@H]4CCC[C@@H]4[C@H]3C(=O)N[C@H](C#N)C[C@@H]3CCCNC3=O)cc12` [Ex7, (1S,3aR,6aS)—N—((S)-1-cyano-2-((S)-2-oxopiperidin-3-yl)ethyl)-2-(4-methoxy-1H-indole-2-carbonyl)octahydrocyclopenta[c]pyrrole-1-carboxamide], the pIC50 is greater than 7.00.
To `CC1(C)[C@@H]2[C@@H](C(=O)N[C@H](C#N)C[C@@H]3CCNC3=O)N(C(=O)c3cc4c(F)ccc(F)c4[nH]3)C[C@@H]21` [Ex20, (1R,2S,5S)—N—((S)-1-cyano-2-((S)-2-oxopyrrolidin-3-yl)ethyl)-3-(4,7-difluoro-1H-indole-2-carbonyl)-6,6-dimethyl-3-azabicyclo[3.1.0]hexane-2-carboxamide] belongs 6.00 to 7.00; to `O=C(NCc1ccccc1)C(=O)[C@H](C[C@@H]1CCNC1=O)NC(=O)[C@@H]1[C@H]2CCC[C@H]2CN1C(=O)c1cc2c(OC(F)F)cccc2[nH]1` [Ex15, (1S,3aR,6aS)—N—((S)-4-(benzylamino)-3,4-dioxo-1-((S)-2-oxopyrrolidin-3-yl)butan-2-yl)-2-(4-(difluoromethoxy)-1H-indole-2-carbonyl)octahydrocyclopenta[c]pyrrole-1-carboxamide], greater than 7.00; to `N#C[C@H](C[C@@H]1CCNC1=O)NC(=O)[C@@H]1[C@H]2CCC[C@H]2CN1C(=O)c1cc2c(OC(F)F)cccc2[nH]1` [Ex3, (1S,3aR,6aS)—N—((S)-1-cyano-2-((S)-2-oxopyrrolidin-3-yl)ethyl)-2-(4-(difluoromethoxy)-1H-indole-2-carbonyl)octahydrocyclopenta[c]pyrrole-1-carboxamide], 6.00 to 7.00.
As to `CC1(C)[C@@H]2[C@@H](C(=O)N[C@H](C#N)C[C@@H]3CCNC3=O)N(C(=O)c3cc4cc(F)c(F)cc4[nH]3)C[C@@H]21` [Ex17, (1R,2S,5S)—N—((S)-1-cyano-2-((S)-2-oxopyrrolidin-3-yl)ethyl)-3-(5,6-difluoro-1H-indole-2-carbonyl)-6,6-dimethyl-3-azabicyclo[3.1.0]hexane-2-carboxamide], the pIC50 is 6.00 to 7.00.
As for `CC1(C)C2CN(C(=O)c3cc4c(OC(F)F)cccc4[nH]3)[C@H](C(=O)N[C@H](C#N)C[C@@H]3CCNC3=O)C21` (stereo in doubt) [Ex11, (1S,2S,5R)—N—((S)-1-cyano-2-((S)-2-oxopyrrolidin-3-yl)ethyl)-3-(4-(difluoromethoxy)-1H-indole-2-carbonyl)-6,6-dimethyl-3-azabicyclo[3.1.0]hexane-2-carboxamide], the pIC50 was 6.00 to 7.00.
For `CC(C)C(=O)N[C@H](C(=O)N1C[C@H]2[C@@H]([C@H]1C(=O)N[C@H](C#N)C[C@@H]1CCNC1=O)C2(C)C)C(C)(C)C` [Ex27, (1R,2S,5S)—N—((S)-1-cyano-2-((S)-2-oxopyrrolidin-3-yl)ethyl)-3-((S)-2-isobutyramido-3,3-dimethylbutanoyl)-6,6-dimethyl-3-azabicyclo[3.1.0]hexane-2-carboxamide], the pIC50 was greater than 7.00.
In the case of `CC(C)(C)C(=O)N[C@H](C(=O)N1C[C@H]2[C@@H]([C@H]1C(=O)N[C@H](C#N)C[C@@H]1CCNC1=O)C2(C)C)C(C)(C)C` [Ex28, (1R,2S,5S)—N—((S)-1-cyano-2-((S)-2-oxopyrrolidin-3-yl)ethyl)-3-((S)-3,3-dimethyl-2-pivalamidobutanoyl)-6,6-dimethyl-3-azabicyclo[3.1.0]hexane-2-carboxamide], the pIC50 was greater than 7.00.
For `CC1(C)[C@@H]2[C@@H](C(=O)N[C@H](C#N)C[C@@H]3CCNC3=O)N(C(=O)c3cc4cc(F)cc(F)c4[nH]3)C[C@@H]21` [Ex16, (1R,2S,5S)—N—((S)-1-cyano-2-((S)-2-oxopyrrolidin-3-yl)ethyl)-3-(5,7-difluoro-1H-indole-2-carbonyl)-6,6-dimethyl-3-azabicyclo[3.1.0]hexane-2-carboxamide], the pIC50 is 6.00 to 7.00.
Take `N#C[C@H](C[C@@H]1CCNC1=O)NC(=O)[C@@H]1[C@H]2CCC[C@H]2CN1C(=O)c1cc2c(F)cc(F)cc2[nH]1` [Ex13, (1S,3aR,6aS)—N—((S)-1-cyano-2-((S)-2-oxopyrrolidin-3-yl)ethyl)-2-(4,6-difluoro-1H-indole-2-carbonyl)octahydrocyclopenta[c]pyrrole-1-carboxamide]: the pIC50 was 6.00 to 7.00.
`COc1cccc2[nH]c(C(=O)N3C[C@@H]4CCC[C@@H]4[C@H]3C(=O)N[C@@H](C[C@@H]3CCNC3=O)C(=O)C(=O)NC3CCCCC3)cc12` [Ex9, (1S,3aR,6aS)—N—((S)-4-(cyclohexylamino)-3,4-dioxo-1-((S)-2-oxopyrrolidin-3-yl)butan-2-yl)-2-(4-methoxy-1H-indole-2-carbonyl)octahydrocyclopenta[c]pyrrole-1-carboxamide]: the pIC50 is greater than 7.00.
Regarding `COc1cccc2[nH]c(C(=O)N3C[C@@H]4CCC[C@@H]4[C@H]3C(=O)N[C@@H](C[C@@H]3CCNC3=O)C(=O)COC(=O)c3c(Cl)cccc3Cl)cc12` [Ex2, (S)-3-((1S,3aR,6aS)-2-(4-methoxy-1H-indole-2-carbonyl)octahydrocyclopenta[c]pyrrole-1-carboxamido)-2-oxo-4-((S)-2-oxopyrrolidin-3-yl)butyl 2,6-dichlorobenzoate], the negative-log IC50 (pIC50) was greater than 7.00.
Take `CC(C)(C)[C@H](NC(=O)Cc1ccccc1)C(=O)N1C[C@H]2[C@@H]([C@H]1C(=O)N[C@H](C#N)C[C@@H]1CCNC1=O)C2(C)C` [Ex24, (1R,2S,5S)—N—((S)-1-cyano-2-((S)-2-oxopyrrolidin-3-yl)ethyl)-3-((S)-3,3-dimethyl-2-(2-phenylacetamido)butanoyl)-6,6-dimethyl-3-azabicyclo[3.1.0]hexane-2-carboxamide]: the pIC50 was greater than 7.00.
Take `COc1cccc2[nH]c(C(=O)N3C[C@@H]4CCC[C@@H]4[C@H]3C(=O)N[C@@H](C[C@@H]3CCNC3=O)C(=O)CCl)cc12` [Ex1, (1S,3aR,6aS)—N—((S)-4-chloro-3-oxo-1-((S)-2-oxopyrrolidin-3-yl)butan-2-yl)-2-(4-methoxy-1H-indole-2-carbonyl)octahydrocyclopenta[c]pyrrole-1-carboxamide]: the pIC50 is 6.00 to 7.00.
To `CC1(C)[C@@H]2[C@@H](C(=O)N[C@H](C#N)C[C@@H]3CCNC3=O)N(C(=O)c3cc4c(F)cc(F)cc4[nH]3)C[C@@H]21` [Ex18, (1R,2S,5S)—N—((S)-1-cyano-2-((S)-2-oxopyrrolidin-3-yl)ethyl)-3-(4,6-difluoro-1H-indole-2-carbonyl)-6,6-dimethyl-3-azabicyclo[3.1.0]hexane-2-carboxamide] belongs 6.00 to 7.00; to `CC(C)(C)[C@H](NC(=O)C1CCCCC1)C(=O)N1C[C@H]2[C@@H]([C@H]1C(=O)N[C@H](C#N)C[C@@H]1CCNC1=O)C2(C)C` [Ex25, (1R,2S,5S)—N—((S)-1-cyano-2-((S)-2-oxopyrrolidin-3-yl)ethyl)-3-((S)-2-(cyclohexanecarboxamido)-3,3-dimethylbutanoyl)-6,6-dimethyl-3-azabicyclo[3.1.0]hexane-2-carboxamide], greater than 7.00.
On to `CC(C)(C)[C@H](NC(=O)C1CCCC1)C(=O)N1C[C@H]2[C@@H]([C@H]1C(=O)N[C@H](C#N)C[C@@H]1CCNC1=O)C2(C)C` [Ex23, (1R,2S,5S)—N—((S)-1-cyano-2-((S)-2-oxopyrrolidin-3-yl)ethyl)-3-((S)-2-(cyclopentanecarboxamido)-3,3-dimethylbutanoyl)-6,6-dimethyl-3-azabicyclo[3.1.0]hexane-2-carboxamide], for which the pIC50 is greater than 7.00.
On to `N#C[C@H](C[C@@H]1CCNC1=O)NC(=O)[C@@H]1C[C@H](Oc2ccccc2)CN1C(=O)c1cc2c(OC(F)F)cccc2[nH]1` [Ex19, (2S,4S)—N—((S)-1-cyano-2-((S)-2-oxopyrrolidin-3-yl)ethyl)-1-(4-(difluoromethoxy)-1H-indole-2-carbonyl)-4-phenoxypyrrolidine-2-carboxamide], for which the pIC50 was less than 6.00.
As for `CC1(C)[C@@H]2[C@@H](C(=O)N[C@H](C#N)C[C@@H]3CCNC3=O)N(C(=O)c3cc4c(Cl)cccc4o3)C[C@@H]21` [Ex22, (1R,2S,5S)-3-(4-chlorobenzofuran-2-carbonyl)-N—((S)-1-cyano-2-((S)-2-oxopyrrolidin-3-yl)ethyl)-6,6-dimethyl-3-azabicyclo[3.1.0]hexane-2-carboxamide], the pIC50 was less than 6.00.
To `N#C[C@H](C[C@@H]1CCNC1=O)NC(=O)[C@@H]1CCCN1C(=O)c1cc2c(OC(F)F)cccc2[nH]1` [Ex12, (S)—N—((S)-1-cyano-2-((S)-2-oxopyrrolidin-3-yl)ethyl)-1-(4-(difluoromethoxy)-1H-indole-2-carbonyl)pyrrolidine-2-carboxamide] belongs less than 6.00; to `N#C[C@H](C[C@@H]1CCNC1=O)NC(=O)[C@@H]1[C@H]2CCC[C@H]2CN1C(=O)c1cc2c(Cl)cccc2[nH]1` [Ex14, (1S,3aR,6aS)-2-(4-chloro-1H-indole-2-carbonyl)-N—((S)-1-cyano-2-((S)-2-oxopyrrolidin-3-yl)ethyl)octahydrocyclopenta[c]pyrrole-1-carboxamide], 6.00 to 7.00.
